Measured values reported in patent US20080261891A1, “COMPOSITIONS AND METHODS FOR USING SYRINGOPEPTIN 25A AND RHAMNOLIPIDS” (Utah State University, priority 2007, published 2008).
In brackets after ≈: the same amount, converted by molar mass. Where a SMILES comes first, the peptide text is derived from it. Bridges are numbered along the chain shown (N, C = ends). [ ]: non-standard residue; d: D form. The star is where a group is joined. ξ: configuration not given here. Decanoyl(3ξ-OH) = CCCCCCCC(O)CC(=O)*; Dab = NCC[CH](N)C(=O)O; Dhb = C/C=C(\N)C(=O)O

Assays:
[1] = system: Staphylococcus aureus subsp. aureus; type: cell-based; settings: Staphylococcus aureus subsp. aureus (multiple drug resistant); 48 h
Protocol: (§1) In order to determine the antimicrobial efficacy of RLs and SPs they were tested against several bacterial strains, some with multiple drug resistance. The multiple drug resistant bacterial strains used were E. faecalis and S. aureus. […] A combination of RLs and SPs were tested against L. monocytogenes.
(§2) The MIC of the compounds for the organisms was determined by the microbroth dilution method, described hereafter. The microorganisms were prepared as described above and resuspended in their optimal growth media (Table 1) to ˜10^5 CFU/mL containing SP 25A at 2, 3, 4, 5, 6, 7, 8, 16, 32 and 50 μg/mL in a total volume of 550 μL. RL concentrations of 2, 3, 4, 5, 6, 7, 8, 16, 32 and 60 μg/mL in a total volume of 550 μL were tested in a 48-well plate (Corning, N.Y.). The plates were incubated at optimal growth conditions for the respective organism and monitored for an increase in OD600 after 48 h by a Perkin-Elmer (HTS 7000) plate reader (Downers Grove, Ill.). […] Negative controls (no inhibition of growth) were included using saline in the assay for each compound. The lowest concentration at which there was no increase in OD over 48 h was reported as the MIC. Each MIC was determined in replicate with three separate tests per replication. The results of the three tests were averaged for each replicate.

Enterococcus faecalis = type: cell-based; settings: Enterococcus faecalis (multiple drug resistant); 48 h
Protocol: as §1, §2

[2] = system: Klebsiella pneumoniae subsp. Pneumoniae; experiment: MIC, microbroth dilution method; type: cell-based; settings: 48 h
Protocol: as §2

Bacillus subtilis = experiment: MIC, microbroth dilution method; type: cell-based; settings: 48 h
Protocol: as §2

Listeria innocua [3] = experiment: MIC, microbroth dilution method; type: cell-based; settings: 48 h
Protocol: as §2

Micrococcus luteus [4] = experiment: MIC, microbroth dilution method; type: cell-based; settings: 48 h
Protocol: as §2

Bacillus megaterium [5] = experiment: MIC, microbroth dilution method; type: cell-based; settings: 48 h
Protocol: as §2

Bacillus cereus [6] = experiment: MIC, microbroth dilution method; type: cell-based; settings: 48 h
Protocol: as §2

Salmonella typhimurium = experiment: MIC, microbroth dilution method; type: cell-based; settings: 48 h
Protocol: as §2

Clostridium sporogenes = experiment: MIC, microbroth dilution method; type: cell-based; settings: 48 h
Protocol: as §2

[7] = system: Streptococcus agalacticae; experiment: MIC, microbroth dilution method; type: cell-based; settings: 48 h
Protocol: as §2

Enterobacter aerogenes [8] = experiment: MIC, microbroth dilution method; type: cell-based; settings: 48 h
Protocol: as §2

Citrobacter fruendii = experiment: MIC, microbroth dilution method; type: cell-based; settings: 48 h
Protocol: as §2

Salmonella enteridis = experiment: MIC, microbroth dilution method; type: cell-based; settings: 48 h
Protocol: as §2

Streptococcus mutans [9] = experiment: MIC, microbroth dilution method; type: cell-based; settings: 48 h
Protocol: as §2

Flavobacterium devorans [10] = experiment: MIC, microbroth dilution method; type: cell-based; settings: 48 h
Protocol: as §2

Streptococcus suis = experiment: MIC, microbroth dilution method; type: cell-based; settings: 48 h
Protocol: as §2

Eschereschia coli K12 = experiment: MIC, microbroth dilution method; type: cell-based; settings: 48 h
Protocol: as §2

Listeria monocytogenes = experiment: MIC, microbroth dilution method; type: cell-based; settings: 48 h
Protocol: as §2

[11] = system: Klebsiella pneumoniae subsp. Pneumoniae; experiment: Inhibition rate (IR), propidium iodide uptake; type: cell-based
Protocol: (§3) The antimicrobial action for each compound was initially determined by the rate of uptake of propidium iodide (Fluoropure grade, Molecular Probes, Inc., Eugene, Oreg.) as previously described (Haughland, R. P., 2002, Handbook of fluorescent probes and research chemicals, 9th ed. Molecular Probes, Inc., Eugene, Oreg.). Briefly, all cultures were grown overnight in their respective optimal growth medium and temperature from freezer vials (Table 1). Each culture was sub-cultured twice, harvested in mid-log phase, washed with saline, and adjusted to an appropriate concentration by measuring the optical density at 600 nm. PI, with an excitation wavelength of 535 and an emission wavelength of 617, was added to the culture suspension at a final concentration of 10 μM. Each organism was treated with 50 μg/mL SP 25A and 60 μg/mL of the RL mixture in a final volume of 2.2 mL. The increase in fluorescence was measured with a Shimadzu RF 1501 spectrophotofluorometer at 15 s intervals for a maximum period of 120 min. Saline was added in place of SP 25A or RLs as a negative control. All inhibition experiments were done in replicate.
(§4) The rate of antimicrobial action was expressed as the inhibition rate (“IR”). Curve fitting was done using OriginPro version 7.0 (Natick, Mass.). IR=((Log RFU/(Time))−C)/Time (when d Log RFU/dT>0). Where RFU=relative fluorescent units; and C=Y intercept.

Brevibacterium linens = experiment: Inhibition rate (IR), propidium iodide uptake; type: cell-based
Protocol: as §3, §4

Aeromonas caviae = experiment: Inhibition rate (IR), propidium iodide uptake; type: cell-based
Protocol: as §3, §4

Listeria innocua [12] = experiment: Inhibition rate (IR), propidium iodide uptake; type: cell-based
Protocol: as §3, §4

Micrococcus luteus [13] = experiment: Inhibition rate (IR), propidium iodide uptake; type: cell-based
Protocol: as §3, §4

Bacillus megaterium [14] = experiment: Inhibition rate (IR), propidium iodide uptake; type: cell-based
Protocol: as §3, §4

Bacillus cereus [15] = experiment: Inhibition rate (IR), propidium iodide uptake; type: cell-based
Protocol: as §3, §4

[16] = system: Lactobacillus acidophilus; experiment: Inhibition rate (IR), propidium iodide uptake; type: cell-based
Protocol: as §3, §4

Enterobacter aerogenes [17] = experiment: Inhibition rate (IR), propidium iodide uptake; type: cell-based
Protocol: as §3, §4

Streptococcus mutans [18] = experiment: Inhibition rate (IR), propidium iodide uptake; type: cell-based
Protocol: as §3, §4

[19] = system: Eschereschia coli H7:0157; experiment: Inhibition rate (IR), propidium iodide uptake; type: cell-based
Protocol: as §3, §4

[20] = system: Lactococcus lactis subsp. Lactis; experiment: Inhibition rate (IR), propidium iodide uptake; type: cell-based
Protocol: as §3, §4

Flavobacterium devorans [21] = experiment: Inhibition rate (IR), propidium iodide uptake; type: cell-based
Protocol: as §3, §4

RBC = settings: reported by Dalla Serra et al. 1999; cited from earlier work

## C/C=C(\NC(=O)C(C)NC(=O)C(C)NC(=O)C(CC(C)C)NC(=O)C(NC(=O)C(C)NC(=O)C(C)NC(=O)C(NC(=O)C1CCCN1C(=O)/C(=C/C)NC(=O)CC(O)CCCCCCC)C(C)C)C(C)C)C(=O)NC(C(=O)N/C(=C\C)C(=O)NC(C)C(=O)NC(C(=O)NC(C)C(=O)NC(C)C(=O)N/C(=C\C)C(=O)NC1C(=O)NC(CO)C(=O)NC(C)C(=O)NC(C(C)C)C(=O)NC(C)C(=O)NC(CCN)C(=O)NC(CCN)C(=O)NC(Cc2ccc(O)cc2)C(=O)OC1C)C(C)C)C(C)C (stereo not drawn) [SP 25A, syringopeptin 25A] ({Decanoyl(3ξ-OH)}-[Dhb]PVAAVLAA[Dhb]V[Dhb]AVAA[Dhb]TSAVA[Dab][Dab]Y; ester 18-C; configuration not given here)
[1]
  MIC: 8 µg/mL
Enterococcus faecalis
  MIC: 8 µg/mL
[2]
  MIC: >50 µg/mL
Bacillus subtilis
  MIC: 4 µg/mL (≈ 1.67 µM)
Listeria innocua [3]
  MIC: 3 µg/mL (≈ 1.25 µM)
Micrococcus luteus [4]
  MIC: 4 µg/mL (≈ 1.67 µM)
Bacillus megaterium [5]
  MIC: 3 µg/mL (≈ 1.25 µM)
Bacillus cereus [6]
  MIC: 4 µg/mL (≈ 1.67 µM)
Salmonella typhimurium
  MIC: >50 µg/mL
Clostridium sporogenes
  MIC: 4 µg/mL (≈ 1.67 µM)
[7]
  MIC: 8 µg/mL (≈ 3.33 µM)
Enterobacter aerogenes [8]
  MIC: >50 µg/mL
Citrobacter fruendii
  MIC: >50 µg/mL
Salmonella enteridis
  MIC: >50 µg/mL
Streptococcus mutans [9]
  MIC: 4 µg/mL (≈ 1.67 µM)
Flavobacterium devorans [10]
  MIC: 4 µg/mL (≈ 1.67 µM)
Streptococcus suis
  MIC: 4 µg/mL (≈ 1.67 µM)
Eschereschia coli K12
  MIC: >50 µg/mL
Listeria monocytogenes
  MIC: 3 µg/mL (≈ 1.25 µM)
[11]
  IR SP 25A (50 μg/mL): 0.000
Brevibacterium linens
  IR SP 25A (50 μg/mL): 0.009
Aeromonas caviae
  IR SP 25A (50 μg/mL): 0.000
Listeria innocua [12]
  IR SP 25A (50 μg/mL): 0.005
Micrococcus luteus [13]
  IR SP 25A (50 μg/mL): 0.006
Bacillus megaterium [14]
  IR SP 25A (50 μg/mL): 0.005
Bacillus cereus [15]
  IR SP 25A (50 μg/mL): 0.004
[16]
  IR SP 25A (50 μg/mL): 0.003
Enterobacter aerogenes [17]
  IR SP 25A (50 μg/mL): 0.000
Streptococcus mutans [18]
  IR SP 25A (50 μg/mL): 0.003
[19]
  IR SP 25A (50 μg/mL): 0.000
[20]
  IR SP 25A (50 μg/mL): 0.008
Flavobacterium devorans [21]
  IR SP 25A (50 μg/mL): 0.002
RBC
  concentration to achieve 50% RBC hemolysis: 8880 ng/mL
